Laboratory results from US6365622B1 (Sigma-Tau HealthScience S.p.A., priority 1998, dated 2002).

What was measured:
[1] = system: proprioceptive sensory perception abnormalities induced by cisplatin; test: Cisplatin-induced sensory neuronal lesions (rotarod test); type: in vivo; settings: mouse rotarod; cisplatin 10 mg/kg s.c. seven days; oral seven days acetyl L-carnitine 300 mg/kg, carnitine mixture 300 mg/kg, α-lipoic acid 50 mg/kg
Method: The proprioceptive sensory perception abnormalities induced by cisplatin in the mouse were evaluated by means of the rotarod test (Apfel, S. C., Ann. Neurol., 29, 89, 1991).

[2] = system: brain cells of Wistar rats; test: Survival and growth of isolated brain cells treated with IGF-I, carnitines and α-lipoic acid; type: cell-based; settings: 24 hours after addition; IGF-I 25 ng/ml, acetyl L-carnitine 100 ng/ml, carnitine mixture 100 ng/ml
Method: To this end, brain cells of Wistar rats were isolated according to the method described by Thanguipon (Thanguipon W., Dev. Brain Res., 11, 177, 1983) and were distributed on plates with a density of 3×10^5/cm^2. To the culture medium was added cytosine arabino-furanoside ([…]) to prevent the replication of non-neuronal cells. After eight days, the cells were washed and maintained in a culture in which the serum was replaced with BME (Basal Eagles Medium, Life Technologies, Gaithersburg, Md.) containing a 5 mM KCl concentration.
Cell survival and growth in culture were observed 24 hours after addition of the substances to the medium, on 35 mm disks in contact with 10 ng/ml of fluorescein acetate according to the technique described by Jones (Jones K. H., J. Histochem. Cytochem., 33, 77, 1985). The cell count was done with a fluorescence microscope.

[3] = system: alloxan-induced hyperglycaemia; test: Experimental diabetic hyperglycaemia test (alloxan); type: in vivo; settings: alloxan hyperglycaemic rat; for Serum glucose, Initial: before treatment; for Serum glucose, After 21 days: oral for three weeks, acetyl L-carnitine 200 mg/kg, α-lipoic acid 50 mg/kg
Method: Controlling serum glucose is therefore one of the most important means of preventing diseases related to diabetes. […] The hyperglycaemia was induced by subcutaneous injection of alloxan (100 mg/kg) in the rat, and those rats were considered hyperglycaemia which presented serum glucose levels above 450 mg/dl seven days after the alloxan injection.
Treatment with the test substances was given orally for a period of three weeks. At the end of this period, serum glucose was measured in the various groups of rats, both hyperglycaemic and treated.

[4] = system: cerebral ischaemia induced by occluding the middle cerebral artery (MCA); test: Neuroprotective activity in experimental cerebral ischaemia (endothelin-1 occlusion of the MCA); type: in vivo; settings: rat, i.v. 5 minutes after endothelin; acetyl L-carnitine 50 mg/kg, carnitine mixture 50 mg/kg, α-lipoic acid 20 mg/kg; read three days later
Method: Occlusion of the artery is induced, and the resulting ischaemia can be checked three days after this procedure by transcardiac perfusion of a solution of paraformaldehyde (4% in PBS).
After removing the brain, it was placed in fixative containing 10% sucrose, and cryostatic sections ([…]) fixed with cresyl violet were examined under the optical microscope.
The volume of the infarcted area was calculated according to the method described by Park (Park C. K., Anns. Neurol., 20-150, 1989).

[5] = system: wobbler mice; test: Motor co-ordination abnormality test in wobbler mice; type: in vivo; settings: oral twenty days; for percentage increase in running time: acetyl L-carnitine 200 mg/kg, carnitine mixture 200 mg/kg, α-lipoic acid 50 mg/kg, time to run 10 cm; for holding time on the edge of an inclined platform (in words): versus controls
Method: These tests were conducted in “wobbler mice”, that is to say animals that present an unsteady, staggering gait, an abnormal position of the paws and a reduced speed of movement. These abnormalities are related to progressive atrophy of the motoneurons and musculo-cutaneous nerve fibres, particularly as affecting the anterior limbs. The tests were conducted according to the procedure proposed by Mitsumoto (Mitsumoto H., Annal. Neurol., 36, 14, 1994). […] The examination was performed by evaluating, in the treated animals versus controls, the time that each animal holds on to the edge of an inclined platform (holding time) and also the time it takes to run a distance of 10 cm (running time).

[6] = system: tibial nerve after cutting the sciatic nerve in diabetic rats; test: Sciatic nerve regeneration test in diabetic rats (alloxan, cut sciatic nerve); type: in vivo, rat; settings: thirty days after cutting the sciatic nerve, diet 200 mg/kg acetyl L-carnitine or carnitine mixture, 50 mg/kg α-lipoic acid
Method: The technique used in these tests is the one described by Fernandez (Fernandez E., Int. J. Clin. Pharmacol. Res., 10, 85, 1990).
Diabetes (serum glucose above 450 mg/dl) was induced in a group of rats by subcutaneous injection of 100 mg/kg of alloxan. […] The compounds were administered a week before cutting the sciatic nerve and for thirty days after cutting.
The sciatic nerve was cut under anaesthesia and after exposing 1 cm of it at the level of the sciatic foramen. The border of the lesion was marked with an epineural suture. Thirty days after cutting the nerve, the tissue of the tibial nerve, one of the main divisions of the sciatic nerve, was examined, after sacrificing the animals. Four cross-sections of the tibial nerve measuring approximately 4 mm in length were thus subjected to morphological and morphometric examination by means of a semiautomatic image analyser (Zeiss Videoplan Image Analyser).
The number of regenerating axons and their density per […] were counted, as well as the degenerate elements.

[7] = system: neuromuscular conduction in diabetic rats; test: Neuromuscular conduction test in the diabetic rat (streptozotocin); type: in vivo; settings: after 4 weeks
Method: In these tests, we induced experimental diabetes in rats by intravenously injecting the experimental animals (rats with a mean weight of 300 g) with 50 mg/kg of streptozotocin. In the animals with induced diabetes (serum glucose above 450 mg/dl) the neuromuscular conduction velocity (NMCN7) was measured. To this end, the sciatic nerve was isolated (2 cm length) and the soleus muscle was separated from the gastrocnemius and its distal tendon cut and connected up to an isometric transducer which recorded the muscular contraction force (MCF). The muscle was stimulated via the sciatic nerve by means of two electrodes inserted at a distance of 10 mm from the nerve and connected up to a stimulator.
A bipolar electrode was placed in the distal end of the muscle for displaying the electromyogram via an oscilloscope.
The NMCV was measured in m/sec, dividing the distance between the stimulation electrodes by the mean difference in latency between the start of the […] potentials evoked in the two sites. The MCF was expressed in mm.

[8] = system: sorbitol in ocular lens and sciatic nerve of diabetic rats; test: Sorbitol content in ocular lens and sciatic nerve in the diabetic rat (streptozotocin); type: in vivo; settings: i.p. eight days, acetyl L-carnitine 100 mg/kg, carnitine mixture 100 mg/kg, α-lipoic acid 25 mg/kg
Method: These tests were conducted in a group of rats in which diabetes was induced by means of the intravenous administration of 50 mg/kg of streptozotocin. One week after injection, serum glucose was tested and those rats were considered diabetic which presented serum glucose values above 450 mg/dl. These animals then received intraperitoneal injections, for eight consecutive days, of acetyl L-carnitine (100 mg/kg), or carnitine mixture (acetyl L-carnitine+propionyl L-carnitine+isovaleryl L-carnitine in a […] weight ratio to one another) (100 mg/kg), or (x-lipoic acid (25 mg/kg), either alone or in various combinations.
After eight days of treatment, after suitable isolation, the sorbitol concentration present in both the sciatic nerve and the ocular lens of diabetic rats was measured before and after the treatment administered.

[9] = Toxicological tests: high single doses, parenteral and oral; type: in vivo; settings: rats and mice

| Compound | Equilibrium time [1] | Cell growth (% vs controls) [2] | Serum glucose, Initial [3] | Serum glucose, After 21 days [3] | Extent of ischaemia (volume in mm^3) due to occlusion of the MCA, Volume [4] | percentage increase in running time [5] | holding time on the edge of an inclined platform (in words) [5] | Density of tibial nerve degenerate elements (per 100 nm^2) [6] | Number of tibial nerve degenerate elements [6] | MCF (muscular contraction force) [7] | NMCV (neuromuscular conduction velocity) [7] | Sorbitol, Lens [8] | Sorbitol, Sciatic nerve [8] | amount administered orally without any of the animals dying ([9]; oral) | amount administered parenterally without any of the animals dying ([9]; parenteral) |
| --- | --- | --- | --- | --- | --- | --- | --- | --- | --- | --- | --- | --- | --- | --- | --- |
| N.N.[Cl][Pt][Cl] [Cisplatin, cisplatin] | 8.4 ± 0.8 s |  |  |  |  |  |  |  |  |  |  |  |  |  |  |
| CC(=O)O[C@H](CC(=O)[O-])C[N+](C)(C)C [Acetyl L-carnitine, acetyl L-carnitine] | 9.5 ± 0.6 s | 5 ± 0.51 % vs controls | 509.5 ± 28 mg/dL | 405.9 ± 25 mg/dL | 25.6 ± 1.5 mm^3 | 35 ± 3.2% | improves | 0.16 ± 0.02 per 100 nm^2 | 560 ± 61 | 40.6 ± 3.4 mm | 38.5 ± 1.9 m/sec | 32.7 ± 2.5 nmol/mg | 1.15 ± 0.11 nmol/mg | more than 500 mg/kg | more than 250 mg/kg |
| O=C(O)CCCCC1CCSS1 (stereo not drawn) [α-lipoic acid] | 9.9 ± 0.8 s | 5 ± 0.39 % vs controls | 502.8 ± 36 mg/dL | 360.4 ± 30 mg/dL | 34.5 ± 2.1 mm^3 | 40 ± 3.9% | improves | 0.20 ± 0.04 per 100 nm^2 | 590 ± 0.70 | 41.9 ± 3.3 mm | 40.1 ± 1.5 m/sec | 30.8 ± 3.2 nmol/mg | 1.08 ± 0.10 nmol/mg |  |  |
| IGF-I: insulin-like growth factor, a peptide of the proinsulin group (somatomedins) |  | 45 ± 2.8 % vs controls |  |  |  |  |  |  |  |  |  |  |  |  |  |
